Experiments:
CTGF [1] = assay: ELISA assay of CTGF production by human dermal fibroblasts; assay type: cell-based; conditions: supernatant of human dermal fibroblasts
HaCaT keratinocytes [2] = assay: MTT analysis of proliferation of HaCaT keratinocytes; assay type: cell-based; conditions: 48 hours
Method: HaCaT keratinocytes were treated with major ginsenosides (e.g., Rb1, Rd, Re, and Rg1) and other ginsenosides (e.g., C-K, F1, F2, G17, G75, PPD, PPT, Rg2, Rg3, Rh1, and Rh2) at a concentration of 0.01 μM to 20 μM for 48 hours and then subjected to MTT analysis (FIG. 1A). As the control group, DMSO was used.

[3] = compared with ginsenosides having a large size (about 1,000 Da); cited from earlier work
HaCaT keratinocytes [4] = assay: non-radioactive cell proliferation assay, HaCaT keratinocytes; assay type: cell-based
Method: (§1) Each cell was seeded into a 96-well plate and cultured at 37° C. for 48 hours. The cultured cells were treated with G75, MA, or DMSO at a concentration of 5 μM or 10 μM. After 48 hours, the proliferation of these cells was confirmed using the non-radioactive cell proliferation assay kit (Promega, WI, USA), and migration of these cells was confirmed in the same manner as in Example 1-2 (FIG. 2).

HaCaT keratinocytes [5] = assay: scratch wound closure assay (migration of HaCaT keratinocytes); assay type: cell-based
Method: Specifically, HaCaT keratinocytes were cultured in a 6-well plate and the plate was scratched using a 200 μL micropipette tip. The remainder was washed with PBS and the cells were cultured for 24 hours, treated with 10 μM ginsenoside or DMSO, and the gap regions were measured (FIG. 1B).
as §1

[6] = test system: dorsal excisional wound tissue; assay: RNA sequencing of dorsal excisional wound tissue; assay type: in vivo, mouse; conditions: third day after treatment; p 0.05 or below and change of 1.7-fold or greater
Method: (§2) To examine the process of G75 involvement in wound recovery, RNA sequencing was performed. After creating an excision wound on the dorsal area of each mouse, the wound was treated with G75 or the vehicle control, and RNA was isolated from the dorsal excisional wound tissue on the third day after the treatment and analyzed. When the p value was 0.05 or below and there was a change of 1.7-fold or greater, the change was considered to significant.

[7] = test system: excision wound mouse model; assay: in vivo wound closure activity in excision wound mouse model; conditions: ICR mice, once a day for 9 days, topical
Method: The in vivo wound closure activity was measured in an excision wound mouse model.
Eight-week-old male ICR mice were purchased from Narabiotech (Korea), acclimatized for one week, and used in the experiment. Two full-thickness circular wounds (diameter: 5 mm) were created on the dorsal region of each mouse, and the progressive changes in wound closure were measured relative to the original wound area. G75 (5 μM/wound) or MA (10 μM/wound) was then applied on each wound area once a day for 9 days. DMSO-propylene glycol was used as a vehicle control.

Tgf alpha = assay: RNA sequencing, growth factor mRNA level in wound tissue; assay type: in vivo, mouse; conditions: third day after treatment, versus vehicle control
Method: as §2
(§3) To confirm the effect of G75 on the growth factors involved in wound healing, the mRNA levels of growth factors were measured based on the results of RNA sequencing analysis.

Angpt1 = assay: as above; assay type: in vivo, mouse; conditions: third day after treatment, versus vehicle control
Method: as §2, §3

CTGF [8] = assay: as above; assay type: in vivo, mouse; conditions: third day after treatment, versus vehicle control
Method: as §2, §3

Fgf2 = assay: as above; assay type: in vivo, mouse; conditions: third day after treatment, versus vehicle control
Method: as §2, §3

Fgf10 = assay: as above; assay type: in vivo, mouse; conditions: third day after treatment, versus vehicle control
Method: as §2, §3

Vegf alpha = assay: as above; assay type: in vivo, mouse; conditions: third day after treatment, versus vehicle control
Method: as §2, §3

Hbegf = assay: as above; assay type: in vivo, mouse; conditions: third day after treatment, versus vehicle control
Method: as §2, §3

Hgf = assay: as above; assay type: in vivo, mouse; conditions: third day after treatment, versus vehicle control
Method: as §2, §3

Igf1 = assay: as above; assay type: in vivo, mouse; conditions: third day after treatment, versus vehicle control
Method: as §2, §3

Csf2 = assay: as above; assay type: in vivo, mouse; conditions: third day after treatment, versus vehicle control
Method: as §2, §3

Tgf beta1 = assay: as above; assay type: in vivo, mouse; conditions: third day after treatment, versus vehicle control
Method: as §2, §3

Fgf7 = assay: as above; assay type: in vivo, mouse; conditions: third day after treatment, versus vehicle control
Method: as §2, §3

CTGF protein = assay: western blot of CTGF protein in wound skin tissue; assay type: in vivo, mouse; conditions: after 3 days
Method: To examine whether the G75 treatment increases the expression level of CTGF protein, each wound was treated with G75, and after 3 days, the skin tissue was collected and subjected to western blot.

human dermal fibroblasts [9] = assay: non-radioactive cell proliferation assay, human dermal fibroblasts; assay type: cell-based; conditions: 10 μM, 48 hours
Method: as §1

human dermal fibroblasts [10] = assay: proliferation of human dermal fibroblasts treated with CTGF; assay type: cell-based

With `CC(C)=CCC[C@](C)(O[C@@H]1O[C@H](CO[C@@H]2O[C@H](CO)[C@@H](O)[C@H](O)[C@H]2O)[C@@H](O)[C@H](O)[C@H]1O)[C@H]1CC[C@]2(C)[C@@H]1[C@H](O)C[C@@H]1[C@@]3(C)CC[C@H](O)C(C)(C)[C@@H]3CC[C@]12C` [G75, gypenoside LXXV] the “amount of CTGF production” value (CTGF [1]) was “increased the amount of CTGF production”, the “cell proliferation effect relative to the control group” value (HaCaT keratinocytes [2]; 0.01 μM to 20 μM, DMSO control) was “about 136.8%” and the cell proliferation effect (HaCaT keratinocytes [2]; 0.01 μM to 20 μM, compared to other ginsenosides / control) was “highest cell proliferation effect”. The “concentration at which the highest cell proliferation effect was shown” value (HaCaT keratinocytes [2]) was 10 µM, the “in vivo absorption rate” value [3] was “greater in vivo absorption rate” and the “effects compared with MA at the same concentration” value (HaCaT keratinocytes [4]; cell proliferation and cell migration, HaCaT keratinocytes and human dermal fibroblasts) was “superior effects to MA”. For the same molecule, the cell migration (HaCaT keratinocytes [5]; Example 2-1, 5 μM) was “significant effect”, the cell migration (HaCaT keratinocytes [5]; Example 2-1, 10 μM) was “significant effect” and the “migration effect (gap regions)” value (HaCaT keratinocytes [5]; HaCaT keratinocytes, 10 μM, compared to DMSO control) was “highest migration effect”. The “number of genes whose expression level was changed” value [6] was 1048, the “wound area compared to vehicle control” value ([7]; 5 μM/wound) was “wound areas became smaller” and the “Fold change Tgf alpha mRNA” value (Tgf alpha) was 1.504. For the same molecule, the “Fold change Angpt1 mRNA” value (Angpt1) was 1.796, the “Fold change CTGF mRNA” value (CTGF [8]) was 1.879 and the “Fold change Fgf2 mRNA” value (Fgf2) was 8.143. For the same molecule, the “Fold change Fgf10 mRNA” value (Fgf10) was 1.750, the “Fold change Vegf alpha mRNA” value (Vegf alpha) was 1.281 and the “Fold change Hbegf mRNA” value (Hbegf) was 1.267. For the same molecule, the “Fold change Hgf mRNA” value (Hgf) was 1.191, the “Fold change Igf1 mRNA” value (Igf1) was 1.367 and the “Fold change Csf2 mRNA” value (Csf2) was 5.545. For the same molecule, the “Fold change Tgf beta1 mRNA” value (Tgf beta1) was 1.392, the “Fold change Fgf7 mRNA” value (Fgf7) was 1.789 and the “expression level of CTGF protein” value (CTGF protein) was “significantly increased”.

For madecassoside [reference compound], the cell proliferation (HaCaT keratinocytes [4]; HaCaT keratinocytes, 10 μM, 48 hours) was “slight effect”, the “wound area compared to vehicle control” value ([7]; 10 μM/wound) was “wound areas became smaller” and the cell proliferation (human dermal fibroblasts [9]) was “slight effect”.

B1: CTGF: connective tissue growth factor, applied to human dermal fibroblasts (protein, UniProt P29279 27-349, looked up)
CCN family member 2: QNCSGPCRCPDEPAPRCPAGVSLVLDGCGCCRVCAKQLGELCTERDPCDPHKGLFCHFGSPANRKIGVCTAKDGAPCIFGGTVYRSGESFQSSCKYQCTCLDGAVGCMPLCSMDVRLPSPDCPFPRRVKLPGKCCEEWVCDEPKDQTVVGPALAAYRLEDTFGPDPTMIRANCLVQTTEWSACSKTCGMGISTRVTNDNASCRLEKQSRLCMVRPCEADLEENIKKGKKCIRTPKISKPIKFELSGCTSMKTYRAKFCGVCTDGRCCTPHRTTTLPVEFKCPDGEVMKKNMMFIKTCACHYNCPGDNDIFESLYYRKMYGDMA
With B1 the “proliferation compared to the vehicle control” value (human dermal fibroblasts [10]) was “higher level of proliferation”.

— US10363262B1, “Composition for treating wound comprising gypenoside LXXV” (Intelligent Synthetic Biology Center, priority 2018, dated 2019)
